Results published in patent US7060808B1, “Humanized anti-EGF receptor monoclonal antibody” (ImClone Systems Incorporated, priority 1995, dated 2006).

System: A431 cells
Experiment: Inhibition of A431 cells by 225-CDR peptides (3H-thymidine)
Format: cell-based, human
Details: 72 hours, FIG. 5
Procedure: These peptides were dissolved in PBS at a concentration of 1 mg/ml. A431 cells were plated at 1000 cells per well in 96 well plates. Peptides were added at various concentrations. […] Plates were incubated for 72 hours at 37° C. and pulsed overnight with ^3H-thymidine. Cells were harvested and counted in a liquid scintillation counter. Percent inhibition is defined as the decrease in 3-H thymidine incorporation of antibody or peptide treated cells compared to cells grown in the absence of antibody or peptide.

Substance | inhibition of A431 cells (3H-thymidine incorporation)
NYGVH [heavy chain CDR-1] | inhibited
GVIWSGGNTDYNTPFTSR [heavy chain CDR-2] | inhibited
